Laboratory results published in patent US9078902B2, “Triazine derivatives and their therapeutical applications” (NantBioScience, Inc., priority 2010, dated 2015).

Tests used:
Type in all cases: biochemical
c-Src kinase = target: T1, c-Src kinase (Homo sapiens, UniProt P12931); test: c-Src kinase assay (KinaseProfiler / Kinase Hotspot); conditions: read-out: % Inhibition cSrc
T1 construct: purchased Millipore (KinaseProfiler Service); also Reaction Biology Corp. (Kinase HotSpot)
Procedure: (§1) This example illustrated c-Src kinase, Aurora-A kinase, Flt3 kinase, Ret kinase and TrkA Kinase Assays of selected Compounds from this invention (referred to Daniele Fancelli et al, J. Med. Chem., 2006, 49 (24), pp 7247-7251). The KinaseProfiler™ Service Assay Protocols (Millipore) were used to test the kinase inhibiting activity of novel compounds from this invention. To do this, the buffer composition was as: 20 mM MOPS, 1 mM EDTA, 0.01% Brij-35, 5% Glycerol, 0.1% p-mercaptoethanol, 1 mg/mL BSA. Test compounds were initially dissolved in DMSO at the desired concentration, then serially diluted to the kinase assay buffer. In a final reaction volume of […], Aurora-A(h) (5-10 mU) is incubated with 8 mM MOPS pH 7.0, 0.2 mM EDTA, […] LRRASLG (Kemptide), 10 mM MgAcetate and [y33P-ATP]. The reaction was initiated by the addition of the MgATP mix. After incubation for 40 minute at room temperature, the reaction was stopped by addition of […] of a 3% phosphoric acid solution. […] of the reaction was then spotted onto a P30 filtermat and washed three times for 5 minutes in 50 mM phosphoric acid and once in methanol prior to drying and scintillation counting. Wells containing substrate but no kinase and wells containing a phosphopeptide control were used to set 0% and 100% phosphorylation value, repectively.
(§2) Also Kinase Hotspot SM kinase assay was used to test the compounds for IC50 or % inhibitions (Reaction Biology Corp.). Inhibitor IC50 values were determined by titration of compound at the optimal kinase concentration (Kinase EC50).

Aurora-A kinase = target: T2, Aurora-A kinase (Homo sapiens, UniProt O14965); test: Aurora-A kinase assay (KinaseProfiler / Kinase Hotspot); conditions: read-out: % Inhibition Auroro-A
T2 construct: purchased Millipore (KinaseProfiler Service); also Reaction Biology Corp. (Kinase HotSpot)
T2 sequence (O14965 1-403): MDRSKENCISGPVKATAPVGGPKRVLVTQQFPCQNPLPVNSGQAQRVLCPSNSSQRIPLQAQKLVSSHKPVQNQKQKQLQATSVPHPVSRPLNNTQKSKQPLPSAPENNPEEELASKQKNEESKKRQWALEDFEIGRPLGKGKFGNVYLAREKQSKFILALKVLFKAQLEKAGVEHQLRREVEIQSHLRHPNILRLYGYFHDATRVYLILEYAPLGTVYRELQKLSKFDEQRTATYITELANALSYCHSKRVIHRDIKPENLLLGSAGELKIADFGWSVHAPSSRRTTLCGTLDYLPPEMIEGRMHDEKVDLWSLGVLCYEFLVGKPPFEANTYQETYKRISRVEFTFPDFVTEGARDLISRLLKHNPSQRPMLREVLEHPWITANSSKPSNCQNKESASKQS
Procedure: as §1, §2

TrkA Kinase = target: T3, TrkA Kinase (Homo sapiens, UniProt P04629); test: TrkA kinase assay (KinaseProfiler / Kinase Hotspot)
T3 construct: purchased Millipore (KinaseProfiler Service); also Reaction Biology Corp. (Kinase HotSpot)
Procedure: as §1, §2

Ret kinase = target: T4, Ret kinase (Homo sapiens, UniProt P07949); test: Ret kinase assay (KinaseProfiler / Kinase Hotspot)
T4 construct: purchased Millipore (KinaseProfiler Service); also Reaction Biology Corp. (Kinase HotSpot)
Procedure: as §1, §2

Flt3 kinase = target: T5, Flt3 kinase (Homo sapiens, UniProt P36888); test: Flt3 kinase assay (KinaseProfiler / Kinase Hotspot)
T5 construct: purchased Millipore (KinaseProfiler Service); also Reaction Biology Corp. (Kinase HotSpot)
T5 sequence (P36888 27-993): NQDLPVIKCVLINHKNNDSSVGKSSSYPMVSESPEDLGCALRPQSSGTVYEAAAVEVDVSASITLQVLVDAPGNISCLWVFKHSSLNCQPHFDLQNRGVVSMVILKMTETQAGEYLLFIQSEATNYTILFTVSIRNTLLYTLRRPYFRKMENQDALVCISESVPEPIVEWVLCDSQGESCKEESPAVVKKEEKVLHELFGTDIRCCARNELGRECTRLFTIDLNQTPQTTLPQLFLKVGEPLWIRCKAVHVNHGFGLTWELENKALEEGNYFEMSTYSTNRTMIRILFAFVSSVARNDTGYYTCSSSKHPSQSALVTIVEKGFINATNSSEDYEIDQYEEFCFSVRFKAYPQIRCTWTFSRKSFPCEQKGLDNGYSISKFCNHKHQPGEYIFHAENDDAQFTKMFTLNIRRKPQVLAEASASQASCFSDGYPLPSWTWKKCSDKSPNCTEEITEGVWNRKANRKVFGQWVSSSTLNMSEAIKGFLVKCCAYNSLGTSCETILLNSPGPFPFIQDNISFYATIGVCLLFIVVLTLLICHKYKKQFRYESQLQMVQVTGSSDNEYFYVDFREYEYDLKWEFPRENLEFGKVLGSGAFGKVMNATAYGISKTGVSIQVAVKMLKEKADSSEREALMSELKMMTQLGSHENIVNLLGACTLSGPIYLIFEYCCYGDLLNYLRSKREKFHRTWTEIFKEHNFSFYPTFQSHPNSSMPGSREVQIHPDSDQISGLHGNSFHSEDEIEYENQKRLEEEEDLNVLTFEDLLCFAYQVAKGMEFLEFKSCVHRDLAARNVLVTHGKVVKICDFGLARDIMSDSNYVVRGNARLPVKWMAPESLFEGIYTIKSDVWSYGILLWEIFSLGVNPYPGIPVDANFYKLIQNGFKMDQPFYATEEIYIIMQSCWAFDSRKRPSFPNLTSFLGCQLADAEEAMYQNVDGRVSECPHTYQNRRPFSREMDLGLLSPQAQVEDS
Procedure: as §1, §2

T1 sequence (P12931 whole entry): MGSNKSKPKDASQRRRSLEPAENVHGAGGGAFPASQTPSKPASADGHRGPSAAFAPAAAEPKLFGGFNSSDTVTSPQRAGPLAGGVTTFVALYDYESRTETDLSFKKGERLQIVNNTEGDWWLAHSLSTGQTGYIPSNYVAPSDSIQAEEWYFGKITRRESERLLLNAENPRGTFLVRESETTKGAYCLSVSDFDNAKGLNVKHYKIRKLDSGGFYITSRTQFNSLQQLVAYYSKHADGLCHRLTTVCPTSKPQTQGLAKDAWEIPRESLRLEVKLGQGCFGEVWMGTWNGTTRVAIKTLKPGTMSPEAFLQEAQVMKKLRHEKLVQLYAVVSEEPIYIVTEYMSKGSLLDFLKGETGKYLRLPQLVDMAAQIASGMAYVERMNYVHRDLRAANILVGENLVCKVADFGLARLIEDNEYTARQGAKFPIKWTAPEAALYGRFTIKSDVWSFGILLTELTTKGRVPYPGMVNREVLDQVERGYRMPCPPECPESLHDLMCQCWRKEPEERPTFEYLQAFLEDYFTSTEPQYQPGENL
T4 sequence (P07949 29-1114): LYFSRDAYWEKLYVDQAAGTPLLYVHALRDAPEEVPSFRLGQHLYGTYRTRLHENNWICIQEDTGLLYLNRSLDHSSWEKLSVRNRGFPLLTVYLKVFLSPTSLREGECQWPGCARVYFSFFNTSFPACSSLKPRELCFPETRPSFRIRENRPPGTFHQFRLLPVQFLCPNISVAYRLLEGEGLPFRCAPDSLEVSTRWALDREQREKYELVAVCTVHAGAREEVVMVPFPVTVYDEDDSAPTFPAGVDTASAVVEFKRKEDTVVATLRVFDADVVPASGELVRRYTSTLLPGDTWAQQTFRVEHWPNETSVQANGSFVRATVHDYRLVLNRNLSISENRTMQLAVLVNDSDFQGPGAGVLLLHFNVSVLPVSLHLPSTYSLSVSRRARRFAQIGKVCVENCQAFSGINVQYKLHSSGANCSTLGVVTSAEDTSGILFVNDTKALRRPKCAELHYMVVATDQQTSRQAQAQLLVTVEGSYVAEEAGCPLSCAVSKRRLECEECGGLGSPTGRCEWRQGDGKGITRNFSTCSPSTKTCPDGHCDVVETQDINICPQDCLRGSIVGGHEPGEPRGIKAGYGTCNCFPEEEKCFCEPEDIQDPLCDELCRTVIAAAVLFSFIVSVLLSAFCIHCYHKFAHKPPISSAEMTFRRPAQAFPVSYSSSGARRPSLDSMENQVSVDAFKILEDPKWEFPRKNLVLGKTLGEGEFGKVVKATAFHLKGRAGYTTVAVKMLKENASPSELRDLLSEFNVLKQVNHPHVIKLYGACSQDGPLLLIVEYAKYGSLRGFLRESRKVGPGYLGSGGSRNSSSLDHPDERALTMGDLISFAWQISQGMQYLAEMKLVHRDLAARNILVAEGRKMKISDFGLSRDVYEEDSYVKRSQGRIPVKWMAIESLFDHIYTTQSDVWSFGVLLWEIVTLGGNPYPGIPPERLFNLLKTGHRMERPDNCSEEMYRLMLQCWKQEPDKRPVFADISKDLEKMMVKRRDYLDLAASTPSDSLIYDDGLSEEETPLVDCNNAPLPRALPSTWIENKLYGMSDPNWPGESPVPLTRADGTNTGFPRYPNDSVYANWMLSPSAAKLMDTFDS
T3 sequence (P04629 33-796): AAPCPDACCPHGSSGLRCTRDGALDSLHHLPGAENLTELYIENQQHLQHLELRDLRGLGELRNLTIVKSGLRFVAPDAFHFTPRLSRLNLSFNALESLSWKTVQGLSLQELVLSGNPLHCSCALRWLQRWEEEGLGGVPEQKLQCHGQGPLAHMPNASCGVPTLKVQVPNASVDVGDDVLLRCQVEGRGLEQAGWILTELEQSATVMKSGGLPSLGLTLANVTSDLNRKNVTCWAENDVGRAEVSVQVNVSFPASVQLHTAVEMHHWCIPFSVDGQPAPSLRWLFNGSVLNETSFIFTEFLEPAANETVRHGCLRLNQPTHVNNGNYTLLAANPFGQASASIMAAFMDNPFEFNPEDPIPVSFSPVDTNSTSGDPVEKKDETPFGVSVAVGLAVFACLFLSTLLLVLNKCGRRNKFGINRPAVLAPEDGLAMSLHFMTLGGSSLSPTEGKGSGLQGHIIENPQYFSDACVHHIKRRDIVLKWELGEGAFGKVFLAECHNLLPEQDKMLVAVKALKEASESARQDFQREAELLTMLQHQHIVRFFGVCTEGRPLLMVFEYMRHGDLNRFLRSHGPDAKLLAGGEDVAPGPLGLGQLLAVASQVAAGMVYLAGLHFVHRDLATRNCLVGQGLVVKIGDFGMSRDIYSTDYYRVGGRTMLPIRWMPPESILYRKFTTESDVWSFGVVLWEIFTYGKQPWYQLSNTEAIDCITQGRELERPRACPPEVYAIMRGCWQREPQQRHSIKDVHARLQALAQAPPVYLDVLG

SMILES | inhibition at 1 µM (c-Src kinase) | inhibition at 1 µM (Aurora-A kinase) | inhibition at 1 µM (TrkA Kinase) | inhibition at 1 µM (Ret kinase) | inhibition at 1 µM (Flt3 kinase)
CN1CCN(c2nc(Nc3ncc(-c4ccccc4)s3)nc(Sc3ccccc3)n2)CC1 [Example 14] | < 50% | < 50% | > 90% | < 50% | 
CN1CCN(c2nc(Nc3cc(-c4ccco4)[nH]n3)nc(Sc3ccc(O)cc3)n2)CC1 [Example 15] | 50 to 90% | 50 to 90% | > 90% | > 90% | 
CN1CCN(c2nc(Nc3cc(-c4cccs4)[nH]n3)nc(Sc3ccc(NC(=O)C4CC4)cc3)n2)CC1 [Example 6] | < 50% | 50 to 90% | > 90% | > 90% | 
CN1CCN(c2nc(Nc3cc(-c4ccco4)[nH]n3)nc(Sc3ccc(C(F)(F)F)cc3)n2)CC1 [Example 19] | < 50% | 50 to 90% | > 90% | 50 to 90% | 
CN1CCN(c2nc(Nc3cc(-c4ccco4)[nH]n3)nc(Sc3ccc(Cl)cc3)n2)CC1 [Example 16] | < 50% | 50 to 90% | > 90% | 50 to 90% | > 90%
CN1CCN(c2nc(Nc3cc(-c4ccco4)[nH]n3)nc(Oc3ccccc3)n2)CC1 [Example 26] | 50 to 90% | 50 to 90% | > 90% | > 90% | 
CN1CCN(c2nc(Nc3cc(-c4ccco4)[nH]n3)nc(Sc3cccc(NC(=O)C4CC4)c3)n2)CC1 [Example 30] | 50 to 90% | < 50% | > 90% | > 90% | 
CCc1nc(Nc2cc(-c3ccco3)[nH]n2)nc(Sc2ccc(NC(=O)C3CC3)cc2)n1 [Example 8] | < 50% | < 50% | 50 to 90% | 50 to 90% | 
CN1CCN(c2nc(Nc3ncc(-c4cccs4)s3)nc(Sc3ccccc3)n2)CC1 [Example 21] | < 50% | < 50% | < 50% | < 50% | < 50%
COc1ccc(Sc2nc(Nc3cc(-c4ccco4)[nH]n3)nc(N3CCN(C)CC3)n2)cc1 [Example 24] | 50 to 90% | 50 to 90% | > 90% | > 90% | 
CN1CCN(c2nc(Nc3cc(-c4ccco4)[nH]n3)nc(Sc3cc(Cl)cc(Cl)c3)n2)CC1 [Example 22] | < 50% | 50 to 90% | > 90% | 50 to 90% | 
CN1CCN(c2nc(Nc3cc(-c4ccco4)[nH]n3)nc(Sc3ccc(NC(=O)C4CC4)cc3)n2)CC1 [Example 5] | < 50% | 50 to 90% | > 90% | 50 to 90% | > 90%
CN1CCN(c2nc(Nc3ccccc3)nc(Nc3cc(-c4ccco4)[nH]n3)n2)CC1 [Example 20] | 50 to 90% | 50 to 90% |  | > 90% | 
CN1CCN(c2nc(Nc3cc(-c4ccco4)[nH]n3)nc(Sc3cccc(Cl)c3)n2)CC1 [Example 17] | < 50% | 50 to 90% | > 90% | 50 to 90% | 
CN1CCN(c2nc(Nc3cc(-c4ccco4)[nH]n3)nc(Sc3ccc(OC(F)(F)F)cc3)n2)CC1 [Example 25] | < 50% | < 50% | > 90% | < 50% | 
CN1CCN(c2nc(Nc3cc(-c4ccco4)[nH]n3)nc(Sc3ccc(N)cc3)n2)CC1 [Example 10] | < 50% | 50 to 90% | > 90% | > 90% | 
CN1CCN(c2nc(Nc3ncc(-c4cccs4)s3)nc(Sc3cccc(NC(=O)C4CC4)c3)n2)CC1 [Example 31] | < 50% | < 50% | < 50% | < 50% | 
CN1CCN(c2nc(Nc3cc(-c4ccco4)[nH]n3)nc(Sc3ccccc3Cl)n2)CC1 [Example 18] | < 50% | 50 to 90% | > 90% | 50 to 90% | 
CN1CCN(c2nc(Nc3cc(-c4ccco4)[nH]n3)nc(Sc3ccccc3)n2)CC1 [Example 9] | < 50% | 50 to 90% | > 90% | > 90% | 
CN1CCN(c2nc(Nc3cc(-c4ccccc4)[nH]n3)nc(Sc3ccc(NC(=O)C4CC4)cc3)n2)CC1 [Example 28] | < 50% | < 50% | > 90% | > 90% | 
CN1CCN(c2nc(Nc3cc(-c4ccco4)[nH]n3)nc(N(C)c3ccccc3)n2)CC1 [Example 27] | 50 to 90% | 50 to 90% | > 90% | > 90% | 
CN1CCN(c2nc(Nc3cc(-c4ccco4)[nH]n3)nc(Sc3ccc(Cl)c(Cl)c3)n2)CC1 [Example 23] | < 50% | 50 to 90% |  | 50 to 90% | 
